In US20240109917A1 (ACTELION PHARMACEUTICALS LTD, priority 2020, published 2024):

Columns and labels:
VEGFR2, unphosphorylated = VEGFR2, unphosphorylated (Homo sapiens (Human), UniProt P35968); assay: VEGFR ADP GLO Assay; format: biochemical
[1] = biological target: His6-TEV-PDGFRβ (557-1016) (Homo sapiens (Human), UniProt P09619); assay: PDGFRβ HTRF Assay; format: biochemical; settings: read-out: PDGFR HTRF IC50
Procedure, shortened: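 Human PDGFRβ (557-1016) pre-incubated with compound for 30 min at RT in pH 7.5 HEPES/MgCl2/EGTA/Brij-35/DTT buffer. Reaction started with ATP and TK-biotin peptide, run 3 h at RT, then quenched with EDTA-containing Eu-cryptate antibody/streptavidin-XL665. HTRF 665/620 nm ratio read after 60 min; percent inhibition relative to DMSO and 10 μM imatinib controls.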

VEGFR2, unphosphorylated, sequence (P35968 20-1356): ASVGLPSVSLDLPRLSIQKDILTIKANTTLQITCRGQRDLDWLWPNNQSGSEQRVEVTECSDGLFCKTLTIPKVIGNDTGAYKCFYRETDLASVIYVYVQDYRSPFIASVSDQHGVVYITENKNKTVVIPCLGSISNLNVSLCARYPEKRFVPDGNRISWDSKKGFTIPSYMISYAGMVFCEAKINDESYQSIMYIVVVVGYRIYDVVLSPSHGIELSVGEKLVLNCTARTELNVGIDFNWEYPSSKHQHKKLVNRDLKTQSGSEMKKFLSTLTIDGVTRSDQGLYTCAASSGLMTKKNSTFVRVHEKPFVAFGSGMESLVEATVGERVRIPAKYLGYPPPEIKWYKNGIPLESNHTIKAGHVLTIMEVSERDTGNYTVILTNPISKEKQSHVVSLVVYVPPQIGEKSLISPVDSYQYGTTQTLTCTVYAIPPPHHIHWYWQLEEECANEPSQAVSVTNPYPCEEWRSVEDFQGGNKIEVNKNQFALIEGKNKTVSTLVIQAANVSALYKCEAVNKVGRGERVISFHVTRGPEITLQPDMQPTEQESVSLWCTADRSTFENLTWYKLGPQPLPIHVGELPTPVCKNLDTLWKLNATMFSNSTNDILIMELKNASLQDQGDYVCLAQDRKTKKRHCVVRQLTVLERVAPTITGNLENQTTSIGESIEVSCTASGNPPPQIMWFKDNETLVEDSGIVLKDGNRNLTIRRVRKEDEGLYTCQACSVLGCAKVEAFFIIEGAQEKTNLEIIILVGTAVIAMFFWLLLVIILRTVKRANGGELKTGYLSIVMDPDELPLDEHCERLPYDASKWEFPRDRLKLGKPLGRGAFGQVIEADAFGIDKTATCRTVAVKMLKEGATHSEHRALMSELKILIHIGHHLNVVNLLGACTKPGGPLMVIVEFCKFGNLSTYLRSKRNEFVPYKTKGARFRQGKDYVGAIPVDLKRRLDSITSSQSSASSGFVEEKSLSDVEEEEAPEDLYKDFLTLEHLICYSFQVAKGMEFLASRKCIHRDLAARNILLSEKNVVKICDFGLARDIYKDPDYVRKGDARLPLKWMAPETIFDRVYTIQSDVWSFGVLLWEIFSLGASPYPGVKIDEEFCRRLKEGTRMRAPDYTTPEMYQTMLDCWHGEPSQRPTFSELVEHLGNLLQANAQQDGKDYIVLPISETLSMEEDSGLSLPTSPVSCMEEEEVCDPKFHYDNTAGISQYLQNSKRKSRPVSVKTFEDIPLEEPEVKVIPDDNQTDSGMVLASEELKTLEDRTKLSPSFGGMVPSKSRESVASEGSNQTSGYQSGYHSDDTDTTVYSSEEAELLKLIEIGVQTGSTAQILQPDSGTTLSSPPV
His6-TEV-PDGFRβ (557-1016), sequence (P09619 557-1016): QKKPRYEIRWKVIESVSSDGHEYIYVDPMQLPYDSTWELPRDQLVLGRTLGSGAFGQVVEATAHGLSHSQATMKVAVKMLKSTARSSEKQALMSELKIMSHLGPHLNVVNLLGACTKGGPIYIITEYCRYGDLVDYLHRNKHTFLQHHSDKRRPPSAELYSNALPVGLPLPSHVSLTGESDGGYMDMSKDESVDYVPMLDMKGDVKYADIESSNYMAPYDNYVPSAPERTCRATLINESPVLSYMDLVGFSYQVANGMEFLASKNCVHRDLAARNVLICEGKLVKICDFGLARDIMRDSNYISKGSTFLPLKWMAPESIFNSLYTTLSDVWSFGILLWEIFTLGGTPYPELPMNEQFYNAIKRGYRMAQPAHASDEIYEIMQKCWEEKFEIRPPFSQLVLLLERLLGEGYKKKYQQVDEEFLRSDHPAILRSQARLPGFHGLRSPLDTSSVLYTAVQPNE

| SMILES | IC50 (VEGFR2, unphosphorylated) [nM] | IC50 [1] [nM] |
| --- | --- | --- |
| Cc1ncc(C(=O)NCCN2CCCC2)cc1NC(=O)c1cnn2cc(-c3cnn(CC(O)CO)c3)sc12 (centres unmarked) [Example 225, 2-(1-(2,3-Dihydroxypropyl)-1H-pyrazol-4-yl)-N-(2-methyl-5-((2-(pyrrolidin-1-yl)ethyl)carbamoyl)pyridin-3-yl)pyrazolo[5,1-b]thiazole-7-carboxamide] | > 7500 | 0.6 |
| Cn1cc(-c2cn3ncc(C(=O)Nc4cc(C(=O)NCCN5CCCC5(C)C)ccc4F)c3s2)cn1 [Example 207, N-(5-((2-(2,2-dimethylpyrrolidin-1-yl)ethyl)carbamoyl)-2-fluorophenyl)-2-(1-methyl-1H-pyrazol-4-yl)pyrazolo[5,1-b]thiazole-7-carboxamide] | > 7500 | 0.3 |
| Cc1ncc(C(=O)NCCN2CCCC2)cc1NC(=O)c1cnn2cc(-c3cn(C)nc3C(F)(F)F)sc12 [Example 227, 2-(1-Methyl-3-(trifluoromethyl)-1H-pyrazol-4-yl)-N-(2-methyl-5-((2-(pyrrolidin-1-yl)ethyl)carbamoyl)pyridin-3-yl)pyrazolo[5,1-b]thiazole-7-carboxamide] | > 833 | 0.9 |
| Cc1ncc(C(=O)NCCN2CCCC2)cc1NC(=O)c1cnn2cc(-c3cnn(C)c3C)sc12 [Example 220, 2-(1,5-Dimethyl-1H-pyrazol-4-yl)-N-(2-methyl-5-((2-(pyrrolidin-1-yl)ethyl)carbamoyl)pyridin-3-yl)pyrazolo[5,1-b]thiazole-7-carboxamide] | > 7500 | 0.2 |
| Cc1cc(C(=O)NCCN2CC[C@H](O)C2)sc1NC(=O)c1cnn2cc(-c3cnn(C)c3)sc12 [Example 195, (S)—N-(5-((2-(3-hydroxypyrrolidin-1-yl)ethyl)carbamoyl)-3-methylthiophen-2-yl)-2-(1-methyl-1H-pyrazol-4-yl)pyrazolo[5,1-b]thiazole-7-carboxamide] | > 7500 | 156 |
| Cc1ncc(NC(=O)CCN2CCCC2(C)C)cc1NC(=O)c1cnn2cc(-c3ccn(C)n3)sc12 [Example 12, N-(5-(3-(2,2-dimethylpyrrolidin-1-yl)propanamido)-2-methyl-pyridin-3-yl)-2-(1-methyl-1H-pyrazol-3-yl)pyrazolo[5,1-b]thiazole-7-carboxamide] | > 7500 | 0.3 |
| Cc1ncc(C(=O)NCCN2CCCC2(C)C)cc1NC(=O)c1cnn2cc(-c3cn(C)nc3CO)sc12 [Example 224, N-(5-((2-(2,2-dimethylpyrrolidin-1-yl)ethyl)carbamoyl)-2-methylpyridin-3-yl)-2-(3-(hydroxymethyl)-1-methyl-1H-pyrazol-4-yl)pyrazolo[5,1-b]thiazole-7-carboxamide] | > 2500 | 1.4 |
| Cc1ncc(C(=O)NC[C@H]2CCCN2CCO)cc1NC(=O)c1cnn2cc(-c3cnn(C)c3)sc12 [Example 236, (R)—N-(5-(((1-(2-hydroxyethyl)pyrrolidin-2-yl)methyl)carbamoyl)-2-methylpyridin-3-yl)-2-(1-methyl-1H-pyrazol-4-yl)pyrazolo[5,1-b]thiazole-7-carboxamide] | > 2500 | 2.1 |
| COCCn1cc(-c2cn3ncc(C(=O)Nc4cc(NC(=O)CCCN5CCC[C@@H]5C)cnc4C)c3s2)cn1 [Example 216, (S)-2-(1-(2-methoxyethyl)-1H-pyrazol-4-yl)-N-(2-methyl-5-(4-(2-methylpyrrolidin-1-yl)butanamido)pyridin-3-yl)pyrazolo[5,1-b]thiazole-7-carboxamide] | > 7500 | 1.5 |
| Cc1ncc(C(=O)NCCNCCO)cc1NC(=O)c1cnn2cc(-c3cnn(C)c3)sc12 [Example 234, N-(5-((2-((2-hydroxyethyl)amino)ethyl)carbamoyl)-2-methylpyridin-3-yl)-2-(1-methyl-1H-pyrazol-4-yl)pyrazolo[5,1-b]thiazole-7-carboxamide] | > 7500 | 4.6 |
| Cc1ncc(NC(=O)OC[C@@H]2CCCN2C)cc1NC(=O)c1cnn2cc(-c3cnn(C)c3)sc12 [Example 243, (S)-(1-methylpyrrolidin-2-yl)methyl (6-methyl-5-(2-(1-methyl-1H-pyrazol-4-yl)pyrazolo[5,1-b]thiazole-7-carboxamido)pyridin-3-yl)carbamate] | > 7500 | 0.5 |
| Cc1cc(C(=O)NCCN2CC3CCC2CC3)sc1NC(=O)c1cnn2cc(-c3cnn(C)c3)sc12 [Example 199, N-(5-((2-(2-azabicyclo[2.2.2]octan-2-yl)ethyl)carbamoyl)-3-methylthiophen-2-yl)-2-(1-methyl-1H-pyrazol-4-yl)pyrazolo[5,1-b]thiazole-7-carboxamide] | > 7500 | 2 |
| Cc1ncc(C(=O)NCCN2CCCC2(C)C)cc1NC(=O)c1cnn2cc(-c3cncc(S(C)(=O)=O)c3)sc12 [Example 230, N-(5-((2-(2,2-dimethylpyrrolidin-1-yl)ethyl)carbamoyl)-2-methylpyridin-3-yl)-2-(5-(methylsulfonyl)pyridin-3-yl)pyrazolo[5,1-b]thiazole-7-carboxamide] | > 2500 | 3.2 |
| Cc1ncc(C(=O)NCCN2C[C@H]3CC[C@@H]2C3)cc1NC(=O)c1cnn2cc(-c3cnn(C)c3C)sc12 [Example 208, N-(5-((2-((1R,4S)-2-azabicyclo[2.2.1]heptan-2-yl)ethyl)carbamoyl)-2-methylpyridin-3-yl)-2-(1,5-dimethyl-1H-pyrazol-4-yl)pyrazolo[5,1-b]thiazole-7-carboxamide] | > 7500 | 0.3 |
| Cc1cc(C(=O)NCCN2CC[C@@H](O)C2)sc1NC(=O)c1cnn2cc(-c3cnn(C)c3)sc12 [Example 194, (R)—N-(5-((2-(3-hydroxypyrrolidin-1-yl)ethyl)carbamoyl)-3-methylthiophen-2-yl)-2-(1-methyl-1H-pyrazol-4-yl)pyrazolo[5,1-b]thiazole-7-carboxamide] | 2040 | 147 |
| Cc1cc(C(=O)NCCN(C)C2CCCC2)sc1NC(=O)c1cnn2cc(-c3cnn(C)c3)sc12 [Example 190, N-(5-((2-(cyclopentyl(methyl)amino)ethyl)carbamoyl)-3-methylthiophen-2-yl)-2-(1-methyl-1H-pyrazol-4-yl)pyrazolo[5,1-b]thiazole-7-carboxamide] | > 7500 | 6 |
| Cc1ncc(C(=O)NCCN2CCCC2(C)C)cc1NC(=O)c1cnn2cc(-c3c(C)n[nH]c3C)sc12 [Example 231, 2-(3,5-Dimethyl-1H-pyrazol-4-yl)-N-(5-((2-(2,2-dimethylpyrrolidin-1-yl)ethyl)carbamoyl)-2-methylpyridin-3-yl)pyrazolo[5,1-b]thiazole-7-carboxamide] | > 7500 | 0.4 |
| Cc1ncc(C(=O)NCCN(CCO)CC2CCCCC2)cc1NC(=O)c1cnn2cc(-c3cnn(C)c3)sc12 [Example 235, N-(5-((2-((cyclohexylmethyl)(2-hydroxyethyl)amino)ethyl)carbamoyl)-2-methylpyridin-3-yl)-2-(1-methyl-1H-pyrazol-4-yl)pyrazolo[5,1-b]thiazole-7-carboxamide] | > 7500 | 0.5 |
| Cc1cc(C(=O)NCCN2[C@H](C)CCC[C@@H]2C)sc1NC(=O)c1cnn2cc(-c3cnn(C)c3)sc12 [Example 198, N-(5-((2-((2S,6R)-2,6-dimethylpiperidin-1-yl)ethyl)carbamoyl)-3-methylthiophen-2-yl)-2-(1-methyl-1H-pyrazol-4-yl)pyrazolo[5,1-b]thiazole-7-carboxamide] | > 7500 | 2 |
